From patent publication US20260248788A1, “NEW COMPOUNDS AND TREATMENT OF RENAL CELL CARCINOMA” (TRUSTLIFE THERAPEUTICS INC., priority 2023, published 2026)
Entries after “also recorded” stand apart in the source; their conditions may differ. *1 amine or outer side, *2 acyl side, *3 side chain or, on linkers, in order; H or OH if unused. Where a SMILES comes first, the peptide text is derived from it. Bridges are numbered along the chain shown (N, C = ends). Roman numbers before positions name the chains, in order. [ ]: non-standard residue; d: D form. Actinocin(9to1) = Cc1c2oc3c(C)ccc(C(=O)[*:1])c3nc-2c(C(=O)[*:2])c(N)c1=O; NMeV = CN[C@H](C(=O)O)C(C)C; Sar = CNCC(=O)O

Experiments:
Type in all cases: cell-based, human
Caki-1 = assay: Cell Counting Kit-8 (CCK-8) cell viability assay; details: Caki-1, 24 h; TG-101209 6 nM, NVP-TAE684 3 nM, MK-0752 5 nM, withaferin-a 4 μM, panobinostat 5 nM; vs DMSO
Method: Cell culture 1: Human clear cell renal cell carcinoma (ccRCC) cell line Caki-1 was obtained from the Karolinska Institute of Environmental Medicine, Stockholm, Sweden, derived from a ccRCC patient. The cells were cultured in RPMI 1640 medium with 10% fetal bovine serum (FBS) and 1% penicillin/streptomycin. The cells were cultivated at 37° C. in a humidified incubator with 5% CO2. TG-101209, NVP-TAE684, MK-0752, actinomycin-d, and panobinostat were purchased from Selleckchem ([…], […], […], […], […], Selleckchem, Houston, TX, USA), and withaferin-a was purchased from Sigma (W4394, Sigma-Aldrich, Saint Louis, MO, USA). These drugs were dissolved in DMSO. The cells (from cell culture 1) were seeded in a 96-well plate at 20×10^3 cells per well. After seeding for 24 h, the cells were treated for 24 h with the target drugs: TG-101209 (6 nM), NVP-TAE684 (3 nM), MK-0752 (5 nM), withaferin-a (4 μM), actinomycin-d (0.3 nM), and panobinostat (5 nM). The cells in the negative control group were only treated by DMSO for one day. Cell proliferation was detected by Cell Counting Kit-8 (CCK-8) assay. The 10 μl of CCK-8 reagent (1:10) was added to each well of 96-well plate with siRNA transfected cells or drug-treated cells by manufacturer's instruction. The 96-well plate was incubated at 37° C. for 2 hours and then measured absorbance at 450 nm using a microplate reader (Hidex Sense Beta Plus).

RRM2 = assay: Western blot of RRM2 protein level in drug-treated Caki-1; details: Caki-1, 24 h; NVP-TAE684 3 nM, MK-0752 5 nM, withaferin-a 4 μM, actinomycin-d 0.3 nM; vs DMSO
Method: (§1) Cell culture 1: Human clear cell renal cell carcinoma (ccRCC) cell line Caki-1 was obtained from the Karolinska Institute of Environmental Medicine, Stockholm, Sweden, derived from a ccRCC patient. The cells were cultured in RPMI 1640 medium with 10% fetal bovine serum (FBS) and 1% penicillin/streptomycin. The cells were cultivated at 37° C. in a humidified incubator with 5% CO2.
(§2) TG-101209, NVP-TAE684, MK-0752, actinomycin-d, and panobinostat were purchased from Selleckchem (S2692, S1108, S2660, S8964, S1030, Selleckchem, Houston, TX, USA), and withaferin-a was purchased from Sigma (W4394, Sigma-Aldrich, Saint Louis, MO, USA). These drugs were dissolved in DMSO. The cells (from cell culture 1) were seeded in a 96-well plate at 20×10^3 cells per well. After seeding for 24 h, the cells were treated for 24 h with the target drugs: TG-101209 (6 nM), NVP-TAE684 (3 nM), MK-0752 (5 nM), withaferin-a (4 μM), actinomycin-d (0.3 nM), and panobinostat (5 nM). The cells in the negative control group were only treated by DMSO for one day.
The cells were washed with phosphate-buffered saline (PBS) and lysed with CelLytic M (C2978, Sigma-Aldrich, Saint Louis, MO, USA) lysis buffer containing protease inhibitors. The lysates were centrifuged at 12 000 rpm for 5 min, and the supernatant was collected. The proteins were separated by Mini-PROTEAN® TGX™ Precast Gels (BioRad, Berkeley, CA, USA) and transferred to a Trans-Blot Turbo Mini 0.2 μm PVDF Transfer Packs membrane (BioRad, Berkeley, CA, USA) by using Trans-Blot® Turbo™ Transfer System (Bio-Rad, Berkeley, CA, USA). The antibodies for BUB1B (HPA008419), RRM2 (HPA056994), CEP55 (HPA023430), ASF1B (HPA069385), CCNB2 (HPA008873), and GAPDH (sc47724, Santa Cruz Biotechnology, Inc.) were used for primary immunoblotting. All the antibodies were diluted at 1:10000 concentration. The membranes were incubated in primary antibody solution overnight at 4° C. with gentle rocking. […] The protein bands were detected with ImageQuanat™ LAS 500 (29-0050-63, GE) automatic exposure procedure or 6 min exposure.

BUB1B [1] = assay: Western blot of BUB1B in Caki-1 cells treated with TG-101209 derivatives; details: Caki-1 cells, 5 μM of target drug, 1 day (FIG. 41, 56)
Method: (§3) Cell culture 2: Caki-1 was purchased from CLS Cell Lines Service (Germany). The cells were maintained in McCoy's 5A (modified) medium (16600082, Thermo Fisher Scientific, USA) and supplemented with 10% fetal bovine serum (FBS, F7524, Sigma-Aldrich), 1% Penicillin/Streptomycin (P4333, Sigma-Aldrich).
The target drugs developed as alternatives to TG-101209, were dissolved in 0.1% DMSO (41639, Sigma-Aldrich). Caki-1 cells from cell culture 2 were seeded in a 6-well plate at 3×10^5 cells per well. […]
The cells were washed with PBS solution and then lysed with CelLytic M (C2978, Sigma-Aldrich) lysis buffer containing protease inhibitors (11836170001, Roche). The cell lysates were centrifuged at 12 000 rpm for 10 min and supernatants were collected. Protein Assay Dye Reagent (5000006, Bio-Rad) was used for the determination of protein concentration. The absorbance of the proteins was measured spectrophotometrically at 595 nm by a microplate reader (Hidex Sense Beta Plus). Protein electrophoresis was performed using Mini-PROTEAN® TGX™ Precast Gels (4561086, Bio-Rad) and then the separated proteins were transferred to a Trans-Blot Turbo Mini 0.2 μm PVDF Transfer Packs membrane (1704158, Bio-Rad) by using Trans-Blot® Turbo™ Transfer System (Bio-Rad). The membrane was blocked with 5% skim milk for 30 min at 4° C. with gentle rocking. After blocking, the membrane was treated with primary antibodies: Anti-BUB1B (HPA008419, Human Protein Atlas, Sweden) and Anti-Beta actin (ab8227, Abcam) as a loading control overnight at 4° C. on a rocking platform. After the treatment of primary antibodies, the membrane was washed three times with TBS-T buffer (A09-7500-100, Medicago). Then, Goat anti-Rabbit IgG-HRP (ab205718, Abcam) was treated as the secondary antibody for 30 min at 4° C. with gentle rocking.

Caki-1 cells [2] = assay: LDH cytotoxicity assay; details: Caki-1, 10 nM-30 μM
Method: as §3
Lactate dehydrogenase (LDH) assay was performed with LDH Assay Kit (ab65393). […] 20 μl of media was analysed with LDH Assay Kit as per manufacturer's instruction.

Caki-1 cells [3] = assay: MTT cell viability assay
Method: as §3
The cytotoxic effects of the TG-101209 and its alternatives on the Caki-1 cells were tested by MTT (Thiazolyl Blue Tetrazolium Bromide) method. 1.5×10^4 cells were seeded per well in a 96-well plate in 100 μL growth media. […] After the incubation period, 5 mg/ml MTT (M2128, Sigma-Aldrich) solution in PBS (10 μL) was added to each well. After 1 hour, the MTT solution and all media were removed from the wells. 100 μl of DMSO was added and mixed to dissolve the formazan crystals. Cell viability was analysed by measuring the absorbance of the dissolved formazan at a wavelength of 570 nm with a microplate reader (Hidex Sense Beta Plus).

BUB1B [4] = assay: Western blot of BUB1B protein level in drug-treated Caki-1; details: Caki-1, TG-101209 6 nM, 24 h, vs DMSO negative control
Method: as §1, §2
The cells were washed with phosphate-buffered saline (PBS) and lysed with CelLytic M (C2978, Sigma-Aldrich, Saint Louis, MO, USA) lysis buffer containing protease inhibitors. […] The protein bands were detected with ImageQuanat™ LAS 500 (29-0050-63, GE) automatic exposure procedure or 6 min exposure.

Compound | cell viability (CCK-8) (Caki-1) | protein level of RRM2 (Western blot) (RRM2) | expression levels of BUB1B (Western blot) (BUB1B [1]) | cytotoxic effect and dose dependence (Caki-1 cells [2]) | change of IC50 values after 2 days compared to 1 day treatment (Caki-1 cells [3]; Caki-1 (FIG. 53-54)) | effect on cell viability (MTT) (Caki-1 cells [3]; Caki-1, 10 μM, 1 day, first batch) | IC50 (Caki-1 cells [3]; Caki-1, 1 day (FIG. 43), text: after treatment with 5 μM) [µM] | Ranking, Cell viability (%) (Caki-1 cells [3]; top five, MTT assay, 10 μM, 1 day, rank 1 = greatest reduction) | protein level of BUB1B (Western blot) (BUB1B [4])
COc1cc(N2CCC(N3CCN(C)CC3)CC2)ccc1Nc1ncc(Cl)c(Nc2ccccc2S(=O)(=O)C(C)C)n1 [NVP-TAE684] | significantly reduced | significantly suppressed |  |  |  |  |  |  | 
Cc1cnc(Nc2ccc(N3CCN(C)CC3)cc2)nc1Nc1cccc(S(=O)(=O)NC(C)(C)C)c1 [TG-101209, reference compound] | significantly reduced |  | significantly lower the expression levels of BUB1B | dose dependent toxicity | largest decrease | most profound effect | ~3 | 5 | significantly decreased; also recorded: significantly reduced
Cc1c2oc3c(C)ccc(C(=O)N[C@@H]4C(=O)N[C@H](C(C)C)C(=O)N5CCC[C@H]5C(=O)N(C)CC(=O)N(C)[C@@H](C(C)C)C(=O)O[C@@H]4C)c3nc-2c(C(=O)N[C@@H]2C(=O)N[C@H](C(C)C)C(=O)N3CCC[C@H]3C(=O)N(C)CC(=O)N(C)[C@@H](C(C)C)C(=O)O[C@@H]2C)c(N)c1=O [actinomycin-d] (I: T[dV]P[Sar][NMeV] / II: T[dV]P[Sar][NMeV]; ester I:1-I:C, II:1-II:C; linker I:N-II:N via Actinocin(9to1)) |  | does not work for inhibiting RRM2 |  |  |  |  |  |  | 
CC1=C(CO)C(=O)O[C@@H]([C@@H](C)[C@H]2CC[C@H]3[C@@H]4C[C@H]5O[C@]56[C@@H](O)C=CC(=O)[C@]6(C)[C@H]4CC[C@]23C)C1 [withaferin-a] | significantly reduced | significantly suppressed |  |  |  |  |  |  | 
